Reference: patent US6737383B1, “Herbicidal oxadiazolidines” (priority 1999, dated 2004)

Assays:
[1] = test system: corn; assay: Test B pre/postemergence corn; assay type: in vivo, Zea mays; conditions: for Plant response rating, Corn: scale of 0 to 10 where 0 is no effect and 10 is complete control
Outline: (§1)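 Test chemicals in a non-phytotoxic solvent mixture with surfactant were sprayed preemergence onto planted seeds and postemergence onto plants 2 to 18 cm tall (1- to 4-leaf stage). After twelve to sixteen days in a greenhouse, injury was visually rated against untreated controls from 0 (no effect) to 10 (complete control).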

[2] = test system: crabgrass; assay: Test B pre/postemergence crabgrass; assay type: in vivo, Digitaria sanguinalis; conditions: for Plant response rating, Crabgrass: scale of 0 to 10 where 0 is no effect and 10 is complete control
Outline: as §1

[3] = test system: rape; assay: Test B pre/postemergence rape; assay type: in vivo, Brassica napus; conditions: for Plant response rating, Rape: scale of 0 to 10 where 0 is no effect and 10 is complete control
Outline: as §1

[4] = test system: soybean; assay: Test B pre/postemergence soybean; assay type: in vivo, Glycine max; conditions: for Plant response rating, Soybean: scale of 0 to 10 where 0 is no effect and 10 is complete control
Outline: as §1

[5] = test system: giant foxtail; assay: Test B pre/postemergence giant foxtail; assay type: in vivo, Setaria faberii; conditions: for Plant response rating, Giant foxtail: scale of 0 to 10 where 0 is no effect and 10 is complete control
Outline: as §1

[6] = test system: bedstraw; assay: Test B pre/postemergence bedstraw; assay type: in vivo, Galium aparine; conditions: for Bedstraw plant response rating: scale 0 to 10 (0 no effect, 10 complete control); for Plant response rating, Bedstraw: scale of 0 to 10 where 0 is no effect and 10 is complete control
Outline: as §1

[7] = test system: wild oat; assay: Test B pre/postemergence wild oat; assay type: in vivo, Avena fatua; conditions: for Plant response rating, Wild oats: scale of 0 to 10 where 0 is no effect and 10 is complete control
Outline: as §1

[8] = test system: cocklebur; assay: Test B pre/postemergence cocklebur; assay type: in vivo, Xanthium strumarium; conditions: for Plant response rating, Cocklebur: scale of 0 to 10 where 0 is no effect and 10 is complete control
Outline: as §1

[9] = test system: purple nutsedge; assay: Test B pre/postemergence purple nutsedge; assay type: in vivo, Cyperus rotundus
Outline: as §1

[10] = test system: blackgrass; assay: Test B pre/postemergence blackgrass; assay type: in vivo, Alopecurus myosuroides; conditions: for Plant response rating, Blackgrass: scale of 0 to 10 where 0 is no effect and 10 is complete control
Outline: as §1

[11] = test system: velvetleaf; assay: Test B pre/postemergence velvetleaf; assay type: in vivo, Abutilon theophrasti; conditions: for Plant response rating, Velvetleaf: scale of 0 to 10 where 0 is no effect and 10 is complete control
Outline: as §1

[12] = test system: pigweed; assay: Test B pre/postemergence pigweed; assay type: in vivo, Amaranthus retroflexus; conditions: for Plant response rating, Redroot pigweed: scale of 0 to 10 where 0 is no effect and 10 is complete control
Outline: as §1

[13] = test system: sugar beet; assay: Test B pre/postemergence sugar beet; assay type: in vivo, Beta vulgaris; conditions: for Plant response rating, Sugarbeets: scale of 0 to 10 where 0 is no effect and 10 is complete control
Outline: as §1

[14] = test system: surinam grass; assay: Test B pre/postemergence surinam grass; assay type: in vivo, Brachiaria decumbens; conditions: for Plant response rating, B. signalgrass: scale of 0 to 10 where 0 is no effect and 10 is complete control
Outline: as §1

[15] = test system: wheat; assay: Test B pre/postemergence wheat; assay type: in vivo, Triticum aestivum; conditions: for Plant response rating, Wheat: scale of 0 to 10 where 0 is no effect and 10 is complete control
Outline: as §1

[16] = test system: morningglory; assay: Test B pre/postemergence morningglory; assay type: in vivo, Ipomoea hederacea; conditions: for Plant response rating, Morningglory: scale of 0 to 10 where 0 is no effect and 10 is complete control
Outline: as §1

[17] = Postemergence, Rate 31 g/ha, visual rating, scale 0 to 10 (0 no effect, 10 complete control)
[18] = Postemergence, Rate 125 g/ha, scale 0 to 10, 0 is no effect, 10 is complete control
[19] = Postemergence, Rate 250 g/ha, scale 0 to 10
[20] = Preemergence, Rate 31 g/ha, visual rating, scale 0 to 10 (0 no effect, 10 complete control)
[21] = Preemergence, Rate 250 g/ha, scale 0 to 10, 0 is no effect, 10 is complete control
[22] = Rate 62 g/ha, Postemergence, scale 0 to 10 (0 no effect, 10 complete control)

## CC(C)N(C(=O)n1oc(=O)n(C(C)C(=O)N(C)C)c1=O)c1ccc(F)cc1F (centres unmarked) [Compound 481]
[1]; [17]
  Corn plant response rating: 0
[1]; [18]
  Corn plant response rating: 3
[1]; [19]
  Corn plant response rating: 3
[1]; [20]
  Corn plant response rating: 0
[1]; Preemergence, Rate 62 g/ha
  Plant response rating, Corn: 0
[1]; Preemergence, Rate 125 g/ha
  Plant response rating, Corn: 0
[1]; [21]
  Corn plant response rating: 0
[1]; [22]
  Corn plant response rating: 0
[2]; [17]
  Crabgrass plant response rating: 0
[2]; [18]
  Crabgrass plant response rating: 2
[2]; [19]
  Crabgrass plant response rating: 2
[2]; [20]
  Crabgrass plant response rating: 7
[2]; Preemergence, Rate 62 g/ha
  Plant response rating, Crabgrass: 7
[2]; Preemergence, Rate 125 g/ha
  Plant response rating, Crabgrass: 8
[2]; [21]
  Crabgrass plant response rating: 8
[2]; [22]
  Crabgrass plant response rating: 0
[3]; [17]
  Rape plant response rating: 0
[3]; [18]
  Rape plant response rating: 0
[3]; [19]
  Rape plant response rating: 0
[3]; Preemergence, Rate 62 g/ha
  Plant response rating, Rape: 0
[3]; Preemergence, Rate 125 g/ha
  Plant response rating, Rape: 0
[3]; [21]
  Rape plant response rating: 0
[3]; [22]
  Rape plant response rating: 0
[4]; [17]
  Soybean plant response rating: 4
[4]; [18]
  Soybean plant response rating: 4
[4]; [19]
  Soybean plant response rating: 4
[4]; Preemergence, Rate 62 g/ha
  Plant response rating, Soybean: 0
[4]; Preemergence, Rate 125 g/ha
  Plant response rating, Soybean: 0
[4]; [21]
  Soybean plant response rating: 0
[4]; [22]
  Soybean plant response rating: 4
[5]; [17]
  Giant foxtail plant response rating: 0
[5]; [18]
  Giant foxtail plant response rating: 2
[5]; [19]
  Giant foxtail plant response rating: 8
[5]; [20]
  Giant foxtail plant response rating: 8
[5]; Preemergence, Rate 62 g/ha
  Plant response rating, Giant foxtail: 9
[5]; Preemergence, Rate 125 g/ha
  Plant response rating, Giant foxtail: 9
[5]; [21]
  Giant foxtail plant response rating: 9
[5]; [22]
  Giant foxtail plant response rating: 2
[6]; Preemergence, Rate 31 g/ha, visual rating
  Bedstraw plant response rating: 0
[6]; Preemergence, Rate 62 g/ha
  Plant response rating, Bedstraw: 0
[6]; Preemergence, Rate 125 g/ha
  Plant response rating, Bedstraw: 0
[6]; Rate 62 g/ha, Postemergence
  Bedstraw plant response rating: 0
[7]; [17]
  Wild oats plant response rating: 0
[7]; [18]
  Wild oats plant response rating: 0
[7]; [19]
  Wild oats plant response rating: 0
[7]; Preemergence, Rate 62 g/ha
  Plant response rating, Wild oats: 4
[7]; Preemergence, Rate 125 g/ha
  Plant response rating, Wild oats: 6
[7]; [21]
  Wild oats plant response rating: 8
[7]; [22]
  Wild oats plant response rating: 0
[8]; [17]
  Cocklebur plant response rating: 0
[8]; [18]
  Cocklebur plant response rating: 0
[8]; [19]
  Cocklebur plant response rating: 0
[8]; [20]
  Cocklebur plant response rating: 0
[8]; Preemergence, Rate 62 g/ha
  Plant response rating, Cocklebur: 0
[8]; Preemergence, Rate 125 g/ha
  Plant response rating, Cocklebur: 0
[8]; [21]
  Cocklebur plant response rating: 0
[8]; [22]
  Cocklebur plant response rating: 0
[9]; [17]
  Nutsedge plant response rating: 0
[9]; [19]
  Nutsedge plant response rating: 0
[9]; Preemergence, Rate 125 g/ha, scale of 0 to 10 where 0 is no effect and 10 is complete control
  Plant response rating, Nutsedge: 4
[9]; [21]
  Nutsedge plant response rating: 6
[9]; [22]
  Nutsedge plant response rating: 0
[10]; [17]
  Blackgrass plant response rating: 0
[10]; [18]
  Blackgrass plant response rating: 0
[10]; [19]
  Blackgrass plant response rating: 2
[10]; [20]
  Blackgrass plant response rating: 3
[10]; Preemergence, Rate 62 g/ha
  Plant response rating, Blackgrass: 6
[10]; Preemergence, Rate 125 g/ha
  Plant response rating, Blackgrass: 6
[10]; [21]
  Blackgrass plant response rating: 10
[10]; [22]
  Blackgrass plant response rating: 0
[11]; [17]
  Velvetleaf plant response rating: 0
[11]; [18]
  Velvetleaf plant response rating: 0
[11]; [19]
  Velvetleaf plant response rating: 0
[11]; Preemergence, Rate 62 g/ha
  Plant response rating, Velvetleaf: 0
[11]; Preemergence, Rate 125 g/ha
  Plant response rating, Velvetleaf: 0
[11]; [21]
  Velvetleaf plant response rating: 0
[11]; [22]
  Velvetleaf plant response rating: 0
[12]; [17]
  Redroot pigweed plant response rating: 0
[12]; [18]
  Redroot pigweed plant response rating: 0
[12]; [19]
  Redroot pigweed plant response rating: 0
[12]; Preemergence, Rate 62 g/ha
  Plant response rating, Redroot pigweed: 0
[12]; Preemergence, Rate 125 g/ha
  Plant response rating, Redroot pigweed: 0
[12]; [21]
  Redroot pigweed plant response rating: 3
[12]; [22]
  Redroot pigweed plant response rating: 0
[13]; [17]
  Sugarbeets plant response rating: 0
[13]; [18]
  Sugarbeets plant response rating: 0
[13]; [19]
  Sugarbeets plant response rating: 0
[13]; Preemergence, Rate 62 g/ha
  Plant response rating, Sugarbeets: 0
[13]; Preemergence, Rate 125 g/ha
  Plant response rating, Sugarbeets: 0
[13]; [21]
  Sugarbeets plant response rating: 2
[13]; [22]
  Sugarbeets plant response rating: 0
[14]; [17]
  B. signalgrass plant response rating: 0
[14]; [18]
  B. signalgrass plant response rating: 0
[14]; Postemergence, Rate 250 g/ha, scale 0 to 10, 0 no effect, 10 complete control
  B. signalgrass plant response rating: 6
[14]; [20]
  B. signalgrass plant response rating: 7
[14]; Preemergence, Rate 62 g/ha
  Plant response rating, B. signalgrass: 7
[14]; Preemergence, Rate 125 g/ha
  Plant response rating, B. signalgrass: 9
[14]; [21]
  B. signalgrass plant response rating: 9
[14]; [22]
  B. signalgrass plant response rating: 0
[15]; [17]
  Wheat plant response rating: 0
[15]; [18]
  Wheat plant response rating: 0
[15]; [19]
  Wheat plant response rating: 0
[15]; Preemergence, Rate 62 g/ha
  Plant response rating, Wheat: 0
[15]; Preemergence, Rate 125 g/ha
  Plant response rating, Wheat: 3
[15]; [21]
  Wheat plant response rating: 2
[15]; [22]
  Wheat plant response rating: 0
[16]; [17]
  Morningglory plant response rating: 0
[16]; [18]
  Morningglory plant response rating: 0
[16]; [19]
  Morningglory plant response rating: 2
[16]; Preemergence, Rate 62 g/ha
  Plant response rating, Morningglory: 0
[16]; Preemergence, Rate 125 g/ha
  Plant response rating, Morningglory: 0
[16]; [21]
  Morningglory plant response rating: 0
[16]; [22]
  Morningglory plant response rating: 0
